For one data set, the target named is SARS-CoV 3CL^pro (Severe acute respiratory syndrome coronavirus, UniProt P0C6X7). Kind of data set: biochemical.
In data set [1] the target is T1, SARS-CoV PL^pro (Severe acute respiratory syndrome coronavirus, UniProt P0C6X7). The class given is biochemical.
A further data set addresses MERS-CoV 3CL^pro (Middle East respiratory syndrome-related coronavirus, UniProt K9N7C7). Kind of data set: biochemical.
The next data set deals with MERS-CoV PL^pro (Middle East respiratory syndrome-related coronavirus, UniProt K9N7C7). Kind of data set: biochemical.
Chain of MERS-CoV PL^pro (K9N7C7 1436-1803 limits assumed): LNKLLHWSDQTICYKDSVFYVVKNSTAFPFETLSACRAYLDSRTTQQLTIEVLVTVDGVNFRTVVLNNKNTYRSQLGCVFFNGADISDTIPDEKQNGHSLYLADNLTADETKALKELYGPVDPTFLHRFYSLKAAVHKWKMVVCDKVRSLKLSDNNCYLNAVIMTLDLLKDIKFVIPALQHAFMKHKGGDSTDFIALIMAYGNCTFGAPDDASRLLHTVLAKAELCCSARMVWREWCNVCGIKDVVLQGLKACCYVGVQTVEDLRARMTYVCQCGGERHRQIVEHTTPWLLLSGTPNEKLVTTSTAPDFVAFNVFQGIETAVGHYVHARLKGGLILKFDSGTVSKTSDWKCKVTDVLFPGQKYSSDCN
The target in data set [2] is T1, SARS-CoV PL^pro. Kind of data set: biochemical. The data set is classed as binding. To be noted: for kon: read-out: association rate constant ka; for koff: read-out: dissociation rate constant kd.

The record followed here is publication PMC6010046, “Evaluation of polyphenols from Broussonetia papyrifera as coronavirus protease inhibitors” (Journal of Enzyme Inhibition and Medicinal Chemistry, 2017).

Each structure is given as a SMILES string. “Also recorded” adds a separate entry of the source. Where two headings read alike, the source gives them in different places.

Chain of MERS-CoV 3CL^pro (K9N7C7 3247-3553 limits assumed): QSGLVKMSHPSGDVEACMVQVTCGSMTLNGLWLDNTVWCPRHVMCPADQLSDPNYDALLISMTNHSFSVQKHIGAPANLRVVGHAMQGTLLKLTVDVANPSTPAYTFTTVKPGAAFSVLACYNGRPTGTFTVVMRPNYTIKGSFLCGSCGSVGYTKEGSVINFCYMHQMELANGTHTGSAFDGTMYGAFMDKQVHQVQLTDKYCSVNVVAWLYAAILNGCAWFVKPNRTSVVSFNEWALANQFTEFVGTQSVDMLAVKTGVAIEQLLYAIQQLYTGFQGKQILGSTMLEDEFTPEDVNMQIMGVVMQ

On to `CC(C)=CCc1cc(C(=O)/C=C/c2ccc(O)cc2)c(O)cc1O` [Compound 1, broussochalcone B], for which, on SARS-CoV 3CL^pro, the half-inhibitory concentration (IC50) (as a rule, the concentration at which inhibition is half-maximal) turned out to be 57.8 ± 0.5 µM. Further, on SARS-CoV PL^pro [1], the “SARS-CoV PL^pro, LRLRGG-AMC, Inhibition type” value is reported as “Noncompetitive (6.6 ± 0.5)”. At MERS-CoV 3CL^pro, this molecule came in with a 50% inhibitory concentration (IC50) of 27.9 ± 1.2 µM. At MERS-CoV PL^pro, this molecule showed a concentration for half-maximal inhibition (IC50) of 113 ± 10.1 µM. On SARS-CoV PL^pro [2], the Kd (commonly a measure of binding affinity in units of concentration) is 74 µM, the kon is 56 M⁻¹ s⁻¹ and the koff is 0.00412 s⁻¹.
At SARS-CoV 3CL^pro, `CC(C)=CCc1cc(C(=O)/C=C/c2ccc(O)c(O)c2)c(O)cc1O` [Compound 2, broussochalcone A] returned an IC50 of 88.1 ± 13 µM. The “SARS-CoV PL^pro, LRLRGG-AMC, Inhibition type” value at SARS-CoV PL^pro [1] is “noncompetitive inhibition; also recorded: Noncompetitive (8.0 ± 0.4)”. This molecule also had a 50% inhibitory concentration (IC50) at MERS-CoV 3CL^pro of 36.2 ± 0.4 µM. Besides, at MERS-CoV PL^pro, 42.1 ± 5 µM corresponded to half-maximal inhibition (IC50). On SARS-CoV PL^pro [2], the affinity, expressed as Kd, was 130 µM; the kon is 29.9 M⁻¹ s⁻¹; the koff came out at 0.00388 s⁻¹.
With `CC1(C)C=Cc2cc(C(=O)/C=C/c3ccc(O)cc3)c(O)cc2O1` [Compound 3, 4-hydroxyisolonchocarpin], the IC50 against SARS-CoV 3CL^pro stood at 203 ± 3.9 µM; at MERS-CoV 3CL^pro, 194 ± 15.6 µM; at MERS-CoV PL^pro, 172 ± 10.2 µM. For the same molecule, at SARS-CoV PL^pro [1], the “SARS-CoV PL^pro, LRLRGG-AMC, Inhibition type” value is on record as “Noncompetitive (27.7 ± 1.7)”.
As to `CC(C)=CCc1cc(-c2oc3cc(O)c(CC=C(C)C)c(O)c3c(=O)c2O)cc(O)c1O` [Compound 4, papyriflavonol A], the melting point (in general, the temperature of the solid-liquid transition) lay within 202 to 204 °C. For the same molecule, the IC50 against SARS-CoV 3CL^pro worked out at 104 ± 17.4 µM. Further, the “SARS-CoV PL^pro, LRLRGG-AMC, Inhibition type” value on SARS-CoV PL^pro [1] was “noncompetitive inhibition; also recorded: Noncompetitive (5.9 ± 0.4)”. At MERS-CoV 3CL^pro, this molecule showed a half-inhibitory concentration (IC50) of 64.5 ± 4.9 µM. The half-inhibitory concentration (IC50) at MERS-CoV PL^pro worked out at 113 ± 7.3 µM. On SARS-CoV PL^pro [2], the Kd was found to be 212 µM, the kon amounted to 21 M⁻¹ s⁻¹ and the koff amounted to 0.00445 s⁻¹.
For `CC(C)=CCc1cc(C2CCc3ccc(O)cc3O2)cc(O)c1O` (stereo not drawn) [Compound 5, 3′-(3-methylbut-2-enyl)-3′,4′,7-trihydroxyflavane], the results for the IC50 on SARS-CoV 3CL^pro, at MERS-CoV 3CL^pro and at MERS-CoV PL^pro were 30.2 ± 6.8 µM, 34.7 ± 2 µM and 48.8 ± 6.6 µM, respectively. Further, the “SARS-CoV PL^pro, LRLRGG-AMC, Inhibition type” value at SARS-CoV PL^pro [1] is on record as “Noncompetitive (15.9 ± 0.8)”.
Turning to `CC(C)=CCc1cc([C@@H]2CCc3ccc(O)cc3O2)c(CC=C(C)C)c(O)c1O` [Compound 6, kazinol A], the figures for the IC50 against SARS-CoV 3CL^pro and against MERS-CoV PL^pro were 84.8 ± 10.4 µM and 88.5 ± 3.9 µM, respectively. In addition, on SARS-CoV PL^pro [1], the “SARS-CoV PL^pro, LRLRGG-AMC, Inhibition type” value is listed as “Noncompetitive (40.5 ± 3.4)”.
Taken in the same sequence, the figures for `CC(C)=CCc1c([C@@H]2CCc3ccc(O)cc3O2)cc2c(c1O)OC(C)(C)C=C2` [Compound 7, kazinol B] were 233 ± 6.7 µM, 94.9 ± 13.1 µM and “Noncompetitive (36.7 ± 2.7)”.
As for `CC(C)=CCc1c([C@@H]2CCc3ccc(O)cc3O2)cc2c(c1O)OC(C)(C)C(O)C2O` (stereo partly drawn) [Compound 8, broussoflavan A], the melting point was in the range of 238 to 240 °C. On SARS-CoV 3CL^pro, 92.4 ± 2.1 µM corresponded to half-maximal inhibition (IC50). Also, the “SARS-CoV PL^pro, LRLRGG-AMC, Inhibition type” value at SARS-CoV PL^pro [1] is on record as “Noncompetitive (23.4 ± 1.6)”. The molecule also showed a half-inhibitory concentration (IC50) on MERS-CoV 3CL^pro of 126 ± 17.4 µM. At MERS-CoV PL^pro, the IC50 was 49.1 ± 7.5 µM.
With `CC(C)=CCc1c(CCCc2ccc(O)cc2O)cc(O)c(O)c1CC=C(C)C` [Compound 9, kazinol F], the IC50 on SARS-CoV 3CL^pro worked out at 43.3 ± 10.4 µM; at MERS-CoV 3CL^pro, 135 ± 5.1 µM; at MERS-CoV PL^pro, 39.5 ± 5.1 µM. Besides, the “SARS-CoV PL^pro, LRLRGG-AMC, Inhibition type” value on SARS-CoV PL^pro [1] is on record as “Noncompetitive (12.1 ± 0.7)”.
Take `COc1cc(O)ccc1CCCc1cc(O)c(O)c(CC=C(C)C)c1CC=C(C)C` [Compound 10, kazinol J]: the IC50 at SARS-CoV 3CL^pro amounted to 64.2 ± 1.7 µM. For the same molecule, the “SARS-CoV PL^pro, LRLRGG-AMC, Inhibition type” value on SARS-CoV PL^pro [1] is recorded as “Noncompetitive (10.7 ± 0.9)”. The same molecule had an IC50 against MERS-CoV 3CL^pro of 109 ± 3.7 µM. On MERS-CoV PL^pro, this molecule registered a half-maximal inhibitory concentration (IC50) of 55 ± 1.3 µM. Besides, at SARS-CoV PL^pro [2], the Kd amounted to 804 µM, the kon was 7.3 M⁻¹ s⁻¹ and the koff stood at 0.00591 s⁻¹.
`O=C(/C=C/c1ccc(O)cc1)c1ccc(O)cc1O` [Isoliquiritigenin, isoliquiritigenin, reference compound] displayed an IC50 against SARS-CoV 3CL^pro of 61.9 ± 11 µM. Moreover, on SARS-CoV PL^pro [1], the “SARS-CoV PL^pro, LRLRGG-AMC, Inhibition type” value is “Noncompetitive (23.0 ± 0.9)”.
In the case of `O=c1c(O)c(-c2ccc(O)cc2)oc2cc(O)cc(O)c12` [Kaempferol, kaempferol, reference compound], the results for the IC50 on SARS-CoV 3CL^pro, on MERS-CoV 3CL^pro and at MERS-CoV PL^pro were 116 ± 7.1 µM, 35.3 ± 5.3 µM and 206.6 ± 1.7 µM, respectively. Besides, on SARS-CoV PL^pro [1], the “SARS-CoV PL^pro, LRLRGG-AMC, Inhibition type” value is reported as “Noncompetitive (13.7 ± 0.8)”.
Take `O=c1c(O)c(-c2ccc(O)c(O)c2)oc2cc(O)cc(O)c12` [Quercetin, quercetin, reference compound]: at SARS-CoV PL^pro [1], the “SARS-CoV PL^pro, LRLRGG-AMC, Inhibition type” value is listed as “Noncompetitive (7.0 ± 0.7)”. At MERS-CoV 3CL^pro, this molecule came in with a 50% inhibitory concentration (IC50) of 34.8 ± 1.2 µM.
Take `O=c1c(O[C@@H]2O[C@H](CO)[C@H](O)[C@H](O)[C@H]2O)c(-c2ccc(O)c(O)c2)oc2cc(O)cc(O)c12` [Quercetin-β-galactoside, quercetin-β-galactoside, reference compound]: the “SARS-CoV PL^pro, LRLRGG-AMC, Inhibition type” value at SARS-CoV PL^pro [1] was “Noncompetitive (56.1 ± 2.5)”. For the same molecule, the IC50 at MERS-CoV 3CL^pro (pH 6, read-out: MERS-CoV 3CL^pro, IC50) turned out to be 68 ± 2.4 µM; at MERS-CoV PL^pro (pH 5.5, read-out: MERS-CoV PL^pro, IC50), 129 ± 14.5 µM.
